# Tests used:
# HepG2 cells = assay: Quantification of the secretion of ApoB; assay type: cell-based; conditions: Homo sapiens, HepG2, 24 h, 24 hours of incubation, pIC50 = -log IC50
# In short: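 At 70% confluency, HepG2 cells received compound (0.4% DMSO final) for 24 h. Secreted apoB in cleared medium was immunoprecipitated with sheep anti-apoB then rabbit anti-sheep antibody (24 h each at 8° C.), and pellet radioactivity was counted by scintillation. IC50 values were expressed as pIC50.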
# MTP = MTP (Homo sapiens, UniProt P55157); assay: MTP assay (triglyceride transfer from donor to acceptor vesicles); assay type: biochemical; conditions: MTP activity, percent triglyceride transfer from donor to acceptor vesicles, 37° C.
# Sequence of MTP (P55157 19-894, species assumed): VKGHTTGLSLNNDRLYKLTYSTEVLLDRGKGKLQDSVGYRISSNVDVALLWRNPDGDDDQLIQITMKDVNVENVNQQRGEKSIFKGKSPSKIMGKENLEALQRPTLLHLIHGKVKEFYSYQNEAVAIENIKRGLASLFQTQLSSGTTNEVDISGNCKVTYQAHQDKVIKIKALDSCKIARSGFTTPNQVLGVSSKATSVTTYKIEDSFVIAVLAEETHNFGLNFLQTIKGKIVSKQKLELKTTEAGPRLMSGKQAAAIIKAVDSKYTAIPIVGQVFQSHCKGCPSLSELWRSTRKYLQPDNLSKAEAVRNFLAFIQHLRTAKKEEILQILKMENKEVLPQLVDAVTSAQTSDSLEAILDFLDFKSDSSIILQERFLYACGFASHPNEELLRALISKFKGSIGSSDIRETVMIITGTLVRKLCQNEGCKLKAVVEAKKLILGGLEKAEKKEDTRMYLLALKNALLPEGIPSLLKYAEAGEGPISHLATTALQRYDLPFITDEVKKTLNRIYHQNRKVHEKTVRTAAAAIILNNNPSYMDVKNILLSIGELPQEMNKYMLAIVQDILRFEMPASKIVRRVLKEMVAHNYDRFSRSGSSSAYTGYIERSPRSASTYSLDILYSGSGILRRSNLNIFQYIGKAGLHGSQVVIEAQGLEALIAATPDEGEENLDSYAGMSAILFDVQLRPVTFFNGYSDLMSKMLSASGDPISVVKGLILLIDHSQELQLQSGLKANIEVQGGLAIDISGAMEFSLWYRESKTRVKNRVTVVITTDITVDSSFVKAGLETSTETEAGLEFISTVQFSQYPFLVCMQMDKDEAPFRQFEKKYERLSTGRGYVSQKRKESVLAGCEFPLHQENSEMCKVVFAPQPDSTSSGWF
# Sequence of MTP (P07237 18-508 partner, species assumed): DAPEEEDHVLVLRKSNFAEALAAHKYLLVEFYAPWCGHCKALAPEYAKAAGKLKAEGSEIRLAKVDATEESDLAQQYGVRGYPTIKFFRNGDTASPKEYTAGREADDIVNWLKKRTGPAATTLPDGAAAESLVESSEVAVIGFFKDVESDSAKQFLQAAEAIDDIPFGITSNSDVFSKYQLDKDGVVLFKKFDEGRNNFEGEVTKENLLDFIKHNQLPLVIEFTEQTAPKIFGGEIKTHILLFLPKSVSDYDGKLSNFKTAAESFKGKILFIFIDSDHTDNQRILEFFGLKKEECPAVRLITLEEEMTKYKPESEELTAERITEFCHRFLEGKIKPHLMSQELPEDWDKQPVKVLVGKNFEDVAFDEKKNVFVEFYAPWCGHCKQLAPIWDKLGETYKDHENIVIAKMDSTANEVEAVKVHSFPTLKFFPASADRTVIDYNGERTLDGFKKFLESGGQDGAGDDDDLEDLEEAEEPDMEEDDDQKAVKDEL
# In short: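 Radiolabelled triglyceride transfer from donor vesicles (phosphatidylcholine, 7.5 mol % cardiolipin, 0.25 mol % glycerol tri[1-^14C]-oleate) to phosphatidylcholine acceptor vesicles with BSA, pH 7.5 Tris buffer; compounds in DMSO (0.13% final), 5 min preincubation at 37° C before MTP addition. Donor vesicles removed on DEAE-52; acceptor-supernatant ^14C counts give percent transfer.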
SMILES,IC50 (HepG2 cells),IC50 (MTP),melting point
CCOC(=O)[C@]1(c2ccccc2)CC[C@@H](C(=O)N2CCC(NC(=O)c3ccccc3)CC2)c2ccccc21 (racemic) [Co. No. 25],15 nM,3.85 nM,112 to 115 °C
CC(C)OC(=O)CCNC(=O)[C@@]1(c2ccccc2)CC[C@H](C(=O)N2CCC(NC(=O)c3cccn(C)c3=O)CC2)c2ccccc21 [Co. No. 222],> 1000 nM,45.8 nM,
CC(C)OC(=O)CCCCCNC(=O)[C@@]1(c2ccccc2)CC[C@H](C(=O)N2CCC(NC(=O)c3cccn(C)c3=O)CC2)c2ccccc21 [Co. No. 229],> 1000 nM,7.57 nM,
CCOC(=O)[C@H](CCCCNC(=O)OC(C)(C)C)NC(=O)[C@@]1(c2ccccc2)CC[C@H](C(=O)N2CCC(NC(=O)c3cccn(C)c3=O)CC2)c2ccccc21 [Co. No. 231],> 1000 nM,> 100 nM,
COc1ccccc1C(=O)NC1CCN(C(=O)[C@H]2CC[C@@](C(=O)N[C@@H](CCC(=O)OC(C)C)C(=O)OC(C)C)(c3ccccc3)c3ccccc32)CC1 [Co. No. 248],184 nM,6.61 nM,
CCOC(=O)[C@]1(c2ccccc2)CC[C@@H](C(=O)N2CCC(NC(=O)c3ccccc3N3CCOCC3)CC2)c2ccccc21 [Co. No. 252],3.52 nM,2.49 nM,
COC(=O)CCNC(=O)[C@@]1(c2ccccc2)CC[C@H](C(=O)N2CCC(NC(=O)c3cccnc3OC)CC2)c2ccccc21 [Co. No. 254],17.1 nM,3 nM,
COC(=O)CCNC(=O)[C@@]1(c2ccccc2)CC[C@H](C(=O)N2CCC(NC(=O)c3cccnc3O)CC2)c2ccccc21 [Co. No. 255],> 1000 nM,585 nM,
COC(=O)CCNC(=O)[C@]1(c2ccccc2)CC[C@@H](C(=O)N2CCC(NC(=O)c3ccccc3OC)CC2)c2ccccc21 [Co. No. 256],> 1000 nM,> 1000 nM,
COc1ccccc1C(=O)NC1CCN(C(=O)[C@@H]2CC[C@](C(=O)NCCC(=O)OC(C)C)(c3ccccc3)c3ccccc32)CC1 [Co. No. 257],> 1000 nM,> 1000 nM,
CCCOC(=O)[C@]1(c2ccccc2)CC[C@@H](C(=O)N2CCC(NC(=O)c3ccccc3N3CCOCC3)CC2)c2ccccc21 [Co. No. 260],6.34 nM,3.64 nM,
COC(=O)CCNC(=O)[C@]1(c2ccccc2)CC[C@@H](C(=O)N2CCC(NC(=O)c3cccnc3OC)CC2)c2ccccc21 [Co. No. 262],> 1000 nM,> 1000 nM,
COC(=O)CCNC(=O)[C@]1(c2ccccc2)CC[C@@H](C(=O)N2CCC(NC(=O)c3ccccc3N3CCOCC3)CC2)c2ccccc21 [Co. No. 263],64.4 nM,15.7 nM,
C=CCOC(=O)[C@@]1(c2ccccc2)CC[C@H](C(=O)N2CCC(NC(=O)c3cccnc3OC)CC2)c2ccccc21 [Co. No. 266],2.04 nM,0.966 nM,
COC(=O)CCNC(=O)[C@@]1(c2ccccc2)CC[C@H](C(=O)N2CCC(NC(=O)c3ccccc3N3CCN(C)CC3)CC2)c2ccccc21 [Co. No. 272],670 nM,50.9 nM,
CCOC(=O)[C@@]1(c2cccc(F)c2)CC[C@@H](C(=O)N2CCC(NC(=O)c3ccccc3OC)CC2)c2cc(F)ccc21 [Co. No. 273],1000 nM,165 nM,
CCOC(=O)[C@@]1(c2ccccc2)CC[C@H](C(=O)N2CCC(NC(=O)c3cccnc3OC(C)C)CC2)c2ccccc21 [Co. No. 274],17.3 nM,4.69 nM,
CC(C)OC(=O)CCNC(=O)[C@@]1(c2ccccc2)CC[C@H](C(=O)N2CCC(NC(=O)c3ccccc3N3CCN(C)CC3)CC2)c2ccccc21 [Co. No. 276],75.2 nM,3.49 nM,
CC(C)OC(=O)CCNC(=O)[C@@]1(c2ccccc2)CC[C@H](C(=O)N2CCC(NC(=O)c3cccnc3N3CCN(C)CC3)CC2)c2ccccc21 [Co. No. 277],108 nM,11.4 nM,
CCCOC(=O)CCNC(=O)[C@@]1(c2ccccc2)CC[C@H](C(=O)N2CCC(NC(=O)c3ccccc3OC)CC2)c2ccccc21 [Co. No. 279],14.1 nM,1.5 nM,

# Further lines, results first:
IC50 (HepG2 cells),IC50 (MTP),melting point,SMILES
28.8 nM,6.05 nM,103 to 107 °C,C=CCOC(=O)[C@]1(c2ccccc2)CC[C@@H](C(=O)N2CCC(NC(=O)c3ccccc3)CC2)c2ccccc21 [Co. No. 13]
> 1000 nM,> 100 nM,,CCOC(=O)CCCNC(=O)[C@@]1(c2ccccc2)CC[C@H](C(=O)N2CCC(NC(=O)c3cccn(C)c3=O)CC2)c2ccccc21 [Co. No. 225]
> 1000 nM,111 nM,,Cn1cccc(C(=O)NC2CCN(C(=O)[C@H]3CC[C@@](C(=O)NCCCC(=O)OC(C)(C)C)(c4ccccc4)c4ccccc43)CC2)c1=O [Co. No. 226]
> 1000 nM,117 nM,,CCOC(=O)NCCCC[C@H](NC(=O)[C@@]1(c2ccccc2)CC[C@H](C(=O)N2CCC(NC(=O)c3cccn(C)c3=O)CC2)c2ccccc21)C(=O)OC(C)C [Co. No. 233]
> 1000 nM,109 nM,,CC(C)OC(=O)NCCCC[C@H](NC(=O)[C@@]1(c2ccccc2)CC[C@H](C(=O)N2CCC(NC(=O)c3cccn(C)c3=O)CC2)c2ccccc21)C(=O)OC(C)C [Co. No. 235]
234 nM,3.87 nM,,CCCOC(=O)CCCCCNC(=O)[C@@]1(c2ccccc2)CC[C@H](C(=O)N2CCC(NC(=O)c3ccccc3OC)CC2)c2ccccc21 [Co. No. 246]
382 nM,5.96 nM,,CCCOC(=O)CC[C@H](NC(=O)[C@@]1(c2ccccc2)CC[C@H](C(=O)N2CCC(NC(=O)c3ccccc3OC)CC2)c2ccccc21)C(=O)OCCC [Co. No. 247]
586 nM,2.64 nM,,CCCOC(=O)CCCNC(=O)[C@@]1(c2ccccc2)CC[C@H](C(=O)N2CCC(NC(=O)c3ccccc3OC)CC2)c2ccccc21 [Co. No. 249]
343 nM,1.79 nM,,COc1ccccc1C(=O)NC1CCN(C(=O)[C@H]2CC[C@@](C(=O)NCCCC(=O)OC(C)C)(c3ccccc3)c3ccccc32)CC1 [Co. No. 250]
3.24 nM,0.984 nM,,CCOC(=O)[C@@]1(c2ccccc2)CC[C@H](C(=O)N2CCC(NC(=O)c3cccnc3OC)CC2)c2ccccc21 [Co. No. 253]
> 1000 nM,1800 nM,,COc1ncccc1C(=O)NC1CCN(C(=O)[C@H]2CC[C@@](C(=O)NCCC(=O)O)(c3ccccc3)c3ccccc32)CC1 [Co. No. 258]
> 1000 nM,757 nM,,COc1ncccc1C(=O)NC1CCN(C(=O)[C@@H]2CC[C@](C(=O)NCCC(=O)OC(C)C)(c3ccccc3)c3ccccc32)CC1 [Co. No. 261]
> 1000 nM,> 1000 nM,,COc1ccccc1C(=O)NC1CCN(C(=O)[C@H]2CC[C@](C(=O)NCCC(=O)OC(C)C)(c3ccc(Br)cc3)c3cc(Br)ccc32)CC1 [Co. No. 275]
3.82 nM,0.82 nM,,COc1ncccc1C(=O)NC1CCN(C(=O)[C@H]2CC[C@@](C(=O)NCCC(=O)OC(C)C)(c3ccccc3)c3ccccc32)CC1 [Co. No. 280]

# — patent publication US8114880B2, “Piperidine or piperazine substituted tetrahydro-naphthalene-1-carboxylic acid MTP inhibiting compounds” (Janssen Pharmaceutica N.V., priority 2006, dated 2012)
